# Data as given in ChEMBL document CHEMBL4831544, “Discovery of IHMT-EZH2-115 as a Potent and Selective Enhancer of Zeste Homolog 2 (EZH2) Inhibitor for the Treatment of B-Cell Lymphomas” (J Med Chem, 2021).
# Tested on: not listed separately
# Test: Antiproliferative activity against human WSUDLCL2 cells assessed as inhibition of cell growth measured after 6 days by CellTiter-Glo luminescent assay
# Format: functional
# Settings: WSUDLCL2, 144 h, time 6 day
row,SMILES,GI50
1,CCN(C(=O)C1CC1)c1cc(-c2ccc(N)cc2)cc(C(=O)NCc2c(C)cc(C)[nH]c2=O)c1C,800 nM
2,CCN(C(=O)C1CC1)c1cc(-c2cnc(N3CCN(CC4CC4)CC3)cc2C)cc(C(=O)NCc2c(C)cc(C)[nH]c2=O)c1C,200 nM
3,CCN(C(=O)C(C)C)c1cc(-c2ccc(CN3CCOCC3)cc2)cc(C(=O)NCc2c(C)cc(C)[nH]c2=O)c1C,500 nM
4,CCC(=O)N(CC)c1cc(-c2ccc(CN3CCOCC3)cc2)cc(C(=O)NCc2c(C)cc(C)[nH]c2=O)c1C,900 nM
5,CCN(c1cc(-c2ccc(CN3CCOCC3)cc2)cc(C(=O)NCc2c(C)cc(C)[nH]c2=O)c1C)C1CCOCC1 [TAZEMETOSTAT],300 nM
6,CCN(C(=O)C1CC1)c1cc(-c2ccc(CN3CCOCC3)cc2)cc(C(=O)NCc2c(C)cc(C)[nH]c2=O)c1C,200 nM
7,CCN(C(=O)C1CC1)c1cc(-c2ccc(NC(=O)c3cccnc3)cc2)cc(C(=O)NCc2c(C)cc(C)[nH]c2=O)c1C,800 nM

# Tested on: not listed separately
# Test: Half life in rat at 10 mg/kg, po
# Format: ADME, organism-based
# Settings: in vivo
row,half-life,SMILES
1,1.88 h,CCN(C(=O)C1CC1)c1cc(-c2ccc(CN3CCOCC3)cc2)cc(C(=O)NCc2c(C)cc(C)[nH]c2=O)c1C

# Tested on: not listed separately
# Test: Cmax in rat at 10 mg/kg, po
# Format: ADME, organism-based
# Set-up: route oral, dose 10 mg/kg
# Settings: in vivo
row,Cmax,SMILES
1,106 ng/mL,CCN(C(=O)C1CC1)c1cc(-c2ccc(CN3CCOCC3)cc2)cc(C(=O)NCc2c(C)cc(C)[nH]c2=O)c1C

# Tested on: not listed separately
# Test: AUC (0 to infinity) in rat at 10 mg/kg, po
# Format: ADME, organism-based
# Set-up: time infinity, route oral, dose 10 mg/kg
# Settings: in vivo
row,AUC(0-inf),SMILES
1,244 ng·h/mL,CCN(C(=O)C1CC1)c1cc(-c2ccc(CN3CCOCC3)cc2)cc(C(=O)NCc2c(C)cc(C)[nH]c2=O)c1C

# Tested on: not listed separately
# Test: Apparent volume of distribution in rat at 10 mg/kg, po
# Format: ADME, organism-based
# Settings: in vivo
row,Vz,SMILES
1,208.585 L/kg,CCN(C(=O)C1CC1)c1cc(-c2ccc(CN3CCOCC3)cc2)cc(C(=O)NCc2c(C)cc(C)[nH]c2=O)c1C

# Tested on: not listed separately
# Test: Clearance in rat at 10 mg/kg, po
# Format: ADME, organism-based
# Settings: in vivo
row,CL/F,SMILES
1,1170 mL/min/kg,CCN(C(=O)C1CC1)c1cc(-c2ccc(CN3CCOCC3)cc2)cc(C(=O)NCc2c(C)cc(C)[nH]c2=O)c1C

# Tested on: not listed separately
# Test: Oral bioavailability in rat at 10 mg/kg
# Format: ADME, organism-based
# Settings: in vivo
row,bioavailability,SMILES
1,10.1%,CCN(C(=O)C1CC1)c1cc(-c2ccc(CN3CCOCC3)cc2)cc(C(=O)NCc2c(C)cc(C)[nH]c2=O)c1C

# Tested on: not listed separately
# Test: Half life in rat at 1 mg/kg, iv
# Format: ADME, organism-based
# Settings: in vivo
row,half-life,SMILES
1,0.8 h,CCN(C(=O)C1CC1)c1cc(-c2ccc(CN3CCOCC3)cc2)cc(C(=O)NCc2c(C)cc(C)[nH]c2=O)c1C

# Tested on: not listed separately
# Test: Cmax in rat at 1 mg/kg, iv
# Format: ADME, organism-based
# Set-up: route intravenous, dose 1 mg/kg
# Settings: in vivo
row,Cmax,SMILES
1,686 ng/mL,CCN(C(=O)C1CC1)c1cc(-c2ccc(CN3CCOCC3)cc2)cc(C(=O)NCc2c(C)cc(C)[nH]c2=O)c1C

# Tested on: not listed separately
# Test: AUC (0 to infinity) in rat at 1 mg/kg, iv
# Format: ADME, organism-based
# Set-up: route intravenous, time infinity, dose 1 mg/kg
# Settings: in vivo
row,AUC(0-inf),SMILES
1,242 ng·h/mL,CCN(C(=O)C1CC1)c1cc(-c2ccc(CN3CCOCC3)cc2)cc(C(=O)NCc2c(C)cc(C)[nH]c2=O)c1C

# Tested on: not listed separately
# Test: Apparent volume of distribution in rat at 1 mg/kg, iv
# Format: ADME, organism-based
# Settings: in vivo, read-out: Vz
row,Vd,SMILES
1,4.8 L/kg,CCN(C(=O)C1CC1)c1cc(-c2ccc(CN3CCOCC3)cc2)cc(C(=O)NCc2c(C)cc(C)[nH]c2=O)c1C

# Tested on: not listed separately
# Test: Clearance in rat at 1 mg/kg, iv
# Format: ADME, organism-based
# Settings: in vivo
row,clearance,SMILES
1,69.1 mL/min/kg,CCN(C(=O)C1CC1)c1cc(-c2ccc(CN3CCOCC3)cc2)cc(C(=O)NCc2c(C)cc(C)[nH]c2=O)c1C

# Tested on: Pfeiffer
# Test: Antiproliferative activity against human Pfeiffer cells harboring EZH2 A677G mutant assessed as inhibition of cell growth measured after 6 days by CellTiter-Glo luminescent assay
# Format: functional
# Settings: 144 h, time 6 day
row,SMILES,GI50
1,CCN(c1cc(-c2ccc(CN3CCOCC3)cc2)cc(C(=O)NCc2c(C)cc(C)[nH]c2=O)c1C)C1CCOCC1 [TAZEMETOSTAT],2 nM

# Tested on: not listed separately
# Test: Antiproliferative activity against human WSUDLCL2 cells harboring EZH2 Y641F mutant assessed as inhibition of cell growth measured after 6 days by CellTiter-Glo luminescent assay
# Format: functional
# Settings: WSUDLCL2, 144 h, time 6 day
row,SMILES,GI50
1,CCN(c1cc(-c2ccc(CN3CCOCC3)cc2)cc(C(=O)NCc2c(C)cc(C)[nH]c2=O)c1C)C1CCOCC1 [TAZEMETOSTAT],80 nM

# Tested on: KARPAS-422
# Test: Antiproliferative activity against human KARPAS-422 cells harboring EZH2 Y641N mutant assessed as inhibition of cell growth measured after 6 days by CellTiter-Glo luminescent assay
# Format: functional
# Settings: KARPAS-422, 144 h, time 6 day
row,GI50,SMILES
1,90 nM,CCN(c1cc(-c2ccc(CN3CCOCC3)cc2)cc(C(=O)NCc2c(C)cc(C)[nH]c2=O)c1C)C1CCOCC1 [TAZEMETOSTAT]

# Tested on: SU-DHL-6
# Test: Antiproliferative activity against human SU-DHL-6 cells harboring EZH2 Y641N mutant assessed as inhibition of cell growth measured after 6 days by CellTiter-Glo luminescent assay
# Format: functional
# Settings: SU-DHL-6, 144 h, time 6 day
row,GI50,SMILES
1,1050 nM,CCN(c1cc(-c2ccc(CN3CCOCC3)cc2)cc(C(=O)NCc2c(C)cc(C)[nH]c2=O)c1C)C1CCOCC1 [TAZEMETOSTAT]

# Tested on: SUD4
# Test: Antiproliferative activity against human SU-DHL-4 cells harboring EZH2 Y641S mutant assessed as inhibition of cell growth measured after 6 days by CellTiter-Glo luminescent assay
# Format: functional
# Settings: SU-DHL-4, 144 h, time 6 day
row,SMILES,GI50
1,CCN(c1cc(-c2ccc(CN3CCOCC3)cc2)cc(C(=O)NCc2c(C)cc(C)[nH]c2=O)c1C)C1CCOCC1 [TAZEMETOSTAT],3390 nM

# Tested on: U2932
# Test: Antiproliferative activity against human U2932 cells expressing wild type EZH2 assessed as inhibition of cell growth measured after 6 days by CellTiter-Glo luminescent assay
# Format: functional
# Settings: U2932, 144 h, time 6 day
row,SMILES,GI50
1,CCN(c1cc(-c2ccc(CN3CCOCC3)cc2)cc(C(=O)NCc2c(C)cc(C)[nH]c2=O)c1C)C1CCOCC1 [TAZEMETOSTAT],> 10000 nM

# Tested on: Pfeiffer
# Test: Antitumor activity against human Pfeiffer cells harboring EZH2 A677G mutant xenografted in NCG mouse assessed as tumor growth inhibition at 200 mg/kg, po BID via gavage measured after 28 days relative to control
# Format: functional
# Settings: 672 h, time 28 day, read-out: TGI
row,SMILES,inhibition in vivo at 200 mg/kg
1,CCN(c1cc(-c2ccc(CN3CCOCC3)cc2)cc(C(=O)NCc2c(C)cc(C)[nH]c2=O)c1C)C1CCOCC1 [TAZEMETOSTAT],100%

# Tested on: KARPAS-422
# Test: Antitumor activity against human KARPAS-422 cells harboring EZH2 Y641N mutant xenografted in NCG mouse assessed as tumor growth inhibition at 200 mg/kg, po BID via gavage measured after 28 days relative to control
# Format: functional
# Settings: KARPAS-422, po, 672 h, time 28 day, read-out: TGI
row,SMILES,inhibition in vivo at 200 mg/kg
1,CCN(c1cc(-c2ccc(CN3CCOCC3)cc2)cc(C(=O)NCc2c(C)cc(C)[nH]c2=O)c1C)C1CCOCC1 [TAZEMETOSTAT],89.3%

# Tested on: not listed separately
# Test: Toxicity in NCG mouse xenografted with human Pfeiffer cells harboring EZH2 A677G mutant assessed as effect on body weight at 200 mg/kg, po BID via gavage measured after 28 days
# Format: organism-based
# Settings: in vivo, 672 h, time 28 day
row,SMILES,Activity
1,CCN(c1cc(-c2ccc(CN3CCOCC3)cc2)cc(C(=O)NCc2c(C)cc(C)[nH]c2=O)c1C)C1CCOCC1 [TAZEMETOSTAT],Non-Toxic

# Tested on: not listed separately
# Test: Toxicity in NCG mouse xenografted with human KARPAS-422 cells harboring EZH2 Y641N mutant assessed as effect on body weight at 200 mg/kg, po BID via gavage measured after 28 days
# Format: organism-based
# Settings: in vivo, 672 h, time 28 day
row,SMILES,Activity
1,CCN(c1cc(-c2ccc(CN3CCOCC3)cc2)cc(C(=O)NCc2c(C)cc(C)[nH]c2=O)c1C)C1CCOCC1 [TAZEMETOSTAT],Non-Toxic

# Tested on: KARPAS-422
# Test: Antitumor activity against human KARPAS-422 cells harboring EZH2 Y641N mutant xenografted in NCG mouse assessed as change in tumor weight at 200 mg/kg, po BID via gavage measured after 28 days (reference value: 2.14 g)
# Format: functional
# Settings: time 28 day
row,SMILES,Activity
1,CCN(c1cc(-c2ccc(CN3CCOCC3)cc2)cc(C(=O)NCc2c(C)cc(C)[nH]c2=O)c1C)C1CCOCC1 [TAZEMETOSTAT],0.23 g
